Measurements as given in patent publication US4868159A, “Novel substances KS-501 and KS-502 and process for their preparation” (Kyowa Hakko Kogyo Co., Ltd., priority 1987, dated 1989).
Converted amounts (≈) assume the structure as drawn. “Also recorded” adds a separate entry of the source. Where two headings read alike, the source gives them in different places.

What was measured:
Solubility = format: physicochemical
rabbit platelets [1] = assay: Effect on serotonin release from rabbit platelets; format: cell-based, white rabbit; conditions: for inhibition at 10 µg/mL: 10.0 μg/ml; for inhibition at 30 µg/mL: 30.0 μg/ml
Experimental: Effect on serotonin release from rabbit platelets
9.25 vol of blood was sampled from the carotid artery of a white rabbit and placed in a FALCON 2070 tube (product of Falcon, Bector Dickinson) containing 0.75 vol of 77 mM ethylenediaminetetraacetic acid (EDTA). The thus obtained blood was centrifuged at 200 x g for 15 minutes to obtain platelet rich plasma (referred to as PRP hereinafter). This PRP was incubated with [2-^14 C]-serotonin (2 μCi/100 ml PRP) at 37° C. for an hour to incorporate [2-^14 C]-serotonin therein. Then, the PRP was centrifuged at 650 x g for 15 minutes to obtain platelet precipitates. After washing with Tris-buffered physiological saline (pH 7.4, containing 1 mM EDTA), the platelet precipitates were suspended in CA^++ -free Tyrode's soluton to reach a final density of 10^9 cells/ml.
To 0.475 ml of the thus prepared [2-^14 C]-serotoninlabeled platelet suspension was added 5 μl of a solution of the test compound. After incubation at 37° C. for 3 minutes, platelet activating factor (final concentration: 10^-9 M) was added as a stimulant, followed by incubation for further 3 minutes. 0.3 ml of the reaction solution was immediately taken and poured into 30 µl of ice-cold 0.1 mM formaldehyde5mM EDTA solution to terminate the reaction. After centrifugation at 3,000 rpm at 0° C. for 10 minutes, 250 μl of the supernatant was taken and the radioactivity was measured with a liquid scintillation counter.
*The rate of inhibition of serotonin release was calculated according to
the following equation.

rabbit platelets [2] = assay: Effect on platelet aggregation of rabbit platelets; format: cell-based, white rabbit; conditions: for IC50: Oryctolagus cuniculus, Platelet, 37° C., read-out: IC50 (concentration of the test compound showing 50% inhibition), platelet aggregation
Experimental: Effect on platelet aggreation of rabbit platelets
8.5 vol of blood was sampled from the carotid artery of a white rabbit and placed in a FALCON 2070 tube (product of Falcon, Bector Dickinson) containing 1.5 vol of citrate-dextrose soluton (71 mM citric acid, 85 mM sodium citrate and 111 mM dextrose). The thus obtained blood was centrifuged at 200×g for 15 minutes to obtain PRP. This PRP was centrifuged at 650×g for 10 minutes to obtain platelet precipitates. After washing with Ca^++ -free Tyrode's solution containing 2 mM ethyleneglycol bis(2-aminoethylether) tetraacetic acid (EGTA), the platelet precipitates were again centrifuged at 650 ×g for 10 minutes and washed. The thus obtained platelet precipitates were suspended in Ca^++ -free Tyrode's solution containing 0.25% bovine serum albumin to reach a density of 5×10^8 cells/ml. After the washed platelet suspension was allowed to stand at room temperature for about 30 minutes, 1 mM CaCl2 or 1 mM EGTA was added thereto and the mixture was allowed to stand for further 30 minutes. Then, platelet aggregation was measured.
The aggregation of platelets was determined using an aggregometer, AGGRETEC TE-500 (product of Erma Optical Co., Ltd.) to which the Born method was applied.
First, 10 μl of a test compound soluton was added to 0.2 ml of the washed platelet suspension, while stirring at 1,000 rmp and at 37° C. After incubation at 37° C. for 3 minutes, 10 μl of thrombin (final concentration: 0.05 U/ml) or platelet activating factor (final concentration: 10^-10 M) was added as a stimultant to initiate the reaction. The rate of inhibition of platelet aggregation of the test compound was calculated from the maximum aggregation rate obtained by the use of the test compound and the maximum aggregation rate obtained by the use of only the solvent used for dissolving the test compound, according to the following equation. [formula] A : Maximum aggregation rate of the solvent alone B : Maximum aggregation rate of the test compound
*Concentration of the test compound showing 50% inhibition.

[3] = hexane, carbon tetrachloride, benzene, neutral water, acidic water
[4] = Oryctolagus cuniculus, stimulant platelet activating factor 10^-9 M, 37° C., read-out: Rate of inhibition of serotonin release

Structure (SMILES)	Solubility (Solubility; KS-502: chloroform, ethyl acetate, acetonitrile)	Solubility (Solubility; [3])	Inhibition of serotonin release from platelets (in words) (rabbit platelets [1])	inhibition at 10 µg/mL (rabbit platelets [1]; [4])	inhibition at 30 µg/mL (rabbit platelets [1]; [4])	inhibition at 50 µg/mL (rabbit platelets [1]; Oryctolagus cuniculus, 50.0 μg/ml, stimulant platelet activating factor 10^-9 M, 37° C., read-out: Rate of inhibition of serotonin release)	Inhibition of platelet aggregation (in words) (rabbit platelets [2])	IC50 (rabbit platelets [2]; stimulant platelet activating factor, final concentration 10^-10 M)	IC50 (rabbit platelets [2]; stimulant thrombin, final concentration 0.05 U/ml)	Solubility (Solubility; KS-501: chloroform, ethyl acetate, acetonitrile, methanol, n-butanol, acetone, tetrahydrofuran, dioxane, dimethylsulfoxide, pyridine, monoethanolamine, acetic acid, alkaline water)	inhibition at 3 µg/mL (rabbit platelets [1]; Oryctolagus cuniculus, 3.0 μg/ml, stimulant platelet activating factor 10^-9 M, 37° C., read-out: Rate of inhibition of serotonin release)
CCCCCCCc1cc(OC(=O)c2c(CCCCCCC)cc(O)cc2OC2OC(C(O)CO)C(O)C2O)cc(O)c1C(=O)O (stereo not drawn) [KS-502]	Soluble	Insoluble	inhibitory activity on serotonin release from platelets; also recorded: inhibited serotonin release from rabbit platelets, depending on the concentration	2.7%	28.9%	51.4%					
CCCCCCCc1cc(O)cc(OC(=O)c2c(CCCCCCC)cc(O)cc2OC2OC(C(O)CO)C(O)C2O)c1 (stereo not drawn) [KS-501]		Insoluble	inhibitory activity on serotonin release from platelets; also recorded: inhibited serotonin release from rabbit platelets, depending on the concentration	27.1%	66.4%		inhibitory activity on platelet aggregation; also recorded: inhibited platelet aggregation stimulated with thrombin and platelet activating factor	38 µg/mL (≈ 62.8 µM)	57 µg/mL (≈ 94.3 µM)	Readily soluble	10.2%
